Data taken from PubChem BioAssay (NCI).
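A five-concentration, 48-hour dose response in 96-well plates underlies each endpoint, interpolated linearly between surrounding concentrations. GI50 is the concentration that inhibits growth by half. TGI: concentration producing complete growth inhibition.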

Tests used:
Assay in all cases: growth of human tumour cells (NCI), 48 h
K-562 leukemia = test system: K-562 leukemia
HCT-15 colon = test system: HCT-15 colon
HS 578T breast = test system: HS 578T breast
CCRF-CEM leukemia = test system: CCRF-CEM leukemia
OVCAR-3 ovarian = test system: OVCAR-3 ovarian
IGROV1 ovarian = test system: IGROV1 ovarian
M14 melanoma = test system: M14 melanoma
NCI/ADR-RES ovarian = test system: NCI/ADR-RES ovarian
MDA-MB-231 breast = test system: MDA-MB-231 breast
A549 NSCLC = test system: A549 NSCLC
HL-60(TB) leukemia = test system: HL-60(TB) leukemia
COLO 205 colon = test system: COLO 205 colon
SK-OV-3 ovarian = test system: SK-OV-3 ovarian
OVCAR-4 ovarian = test system: OVCAR-4 ovarian
A498 renal = test system: A498 renal
EKVX NSCLC = test system: EKVX NSCLC
RXF 393 renal = test system: RXF 393 renal
MDA-MB-435 = test system: MDA-MB-435
DU-145 prostate = test system: DU-145 prostate
SK-MEL-5 melanoma = test system: SK-MEL-5 melanoma
MOLT-4 leukemia = test system: MOLT-4 leukemia
SF-268 CNS = test system: SF-268 CNS
LOX IMVI melanoma = test system: LOX IMVI melanoma
NCI-H23 lung = test system: NCI-H23 lung
PC-3 prostate = test system: PC-3 prostate
SW-620 colon = test system: SW-620 colon
SK-MEL-2 melanoma = test system: SK-MEL-2 melanoma
ACHN renal = test system: ACHN renal
UACC-257 melanoma = test system: UACC-257 melanoma
BT-549 breast = test system: BT-549 breast
UACC-62 melanoma = test system: UACC-62 melanoma
SNB-75 CNS = test system: SNB-75 CNS
MALME-3M melanoma = test system: MALME-3M melanoma
SN12C renal = test system: SN12C renal
SF-295 CNS = test system: SF-295 CNS
SR leukemia = test system: SR leukemia
TK-10 renal = test system: TK-10 renal
HOP-62 NSCLC = test system: HOP-62 NSCLC
SK-MEL-28 melanoma = test system: SK-MEL-28 melanoma
RPMI-8226 leukemia = test system: RPMI-8226 leukemia
OVCAR-5 ovarian = test system: OVCAR-5 ovarian
HT29 colon = test system: HT29 colon
CAKI-1 renal = test system: CAKI-1 renal
SF-539 CNS = test system: SF-539 CNS
NCI-H522 lung = test system: NCI-H522 lung
MCF7 breast = test system: MCF7 breast
SNB-19 CNS = test system: SNB-19 CNS
NCI-H460 lung = test system: NCI-H460 lung
NCI-H226 lung = test system: NCI-H226 lung
HOP-92 NSCLC = test system: HOP-92 NSCLC
UO-31 renal = test system: UO-31 renal
HCC-2998 colon = test system: HCC-2998 colon
T-47D breast = test system: T-47D breast
OVCAR-8 ovarian = test system: OVCAR-8 ovarian
786-0 renal = test system: 786-0 renal
U251 CNS = test system: U251 CNS
KM12 colon = test system: KM12 colon
HCT-116 colon = test system: HCT-116 colon

COc1ccc2c(-c3ccnc(Nc4cccc(OC(F)(F)F)c4)n3)cnn2n1
GI50 (K-562 leukemia): 420 nM
TGI (K-562 leukemia): > 25000 nM
GI50 (HCT-15 colon): 1030 nM
TGI (HCT-15 colon): > 23000 nM
GI50 (HS 578T breast): 835 nM
TGI (HS 578T breast): > 9950 nM
GI50 (CCRF-CEM leukemia): 1090 nM
TGI (CCRF-CEM leukemia): > 25000 nM
GI50 (OVCAR-3 ovarian): 661 nM
TGI (OVCAR-3 ovarian): 1680 nM
GI50 (IGROV1 ovarian): 2390 nM
TGI (IGROV1 ovarian): > 12500 nM
GI50 (M14 melanoma): 1260 nM
TGI (M14 melanoma): > 12900 nM
GI50 (NCI/ADR-RES ovarian): 730 nM
TGI (NCI/ADR-RES ovarian): 6740 nM
GI50 (MDA-MB-231 breast): 3630 nM
TGI (MDA-MB-231 breast): > 25000 nM
GI50 (A549 NSCLC): 1820 nM
TGI (A549 NSCLC): 5420 nM
GI50 (HL-60(TB) leukemia): 1070 nM
TGI (HL-60(TB) leukemia): > 25000 nM
GI50 (COLO 205 colon): 1300 nM
TGI (COLO 205 colon): > 19900 nM
GI50 (SK-OV-3 ovarian): 1190 nM
TGI (SK-OV-3 ovarian): 6100 nM
GI50 (OVCAR-4 ovarian): 3320 nM
TGI (OVCAR-4 ovarian): 12500 nM
GI50 (A498 renal): 999 nM
TGI (A498 renal): 10600 nM
GI50 (EKVX NSCLC): 2870 nM
TGI (EKVX NSCLC): > 25000 nM
GI50 (RXF 393 renal): 1740 nM
TGI (RXF 393 renal): 6660 nM
GI50 (MDA-MB-435): 144 nM
TGI (MDA-MB-435): 692 nM
GI50 (DU-145 prostate): 1350 nM
TGI (DU-145 prostate): 17600 nM
GI50 (SK-MEL-5 melanoma): 1100 nM
TGI (SK-MEL-5 melanoma): 9560 nM
GI50 (MOLT-4 leukemia): 2230 nM
TGI (MOLT-4 leukemia): > 25000 nM
GI50 (SF-268 CNS): 1530 nM
TGI (SF-268 CNS): 6530 nM
GI50 (LOX IMVI melanoma): 1020 nM
TGI (LOX IMVI melanoma): 6470 nM
GI50 (NCI-H23 lung): 1200 nM
TGI (NCI-H23 lung): 7410 nM
GI50 (PC-3 prostate): 987 nM
TGI (PC-3 prostate): > 25000 nM
GI50 (SW-620 colon): 856 nM
TGI (SW-620 colon): 4840 nM
GI50 (SK-MEL-2 melanoma): 1390 nM
TGI (SK-MEL-2 melanoma): 17100 nM
GI50 (ACHN renal): 1800 nM
TGI (ACHN renal): > 25000 nM
GI50 (UACC-257 melanoma): 1550 nM
TGI (UACC-257 melanoma): > 25000 nM
GI50 (BT-549 breast): 1480 nM
TGI (BT-549 breast): > 25000 nM
GI50 (UACC-62 melanoma): 863 nM
TGI (UACC-62 melanoma): 6940 nM
GI50 (SNB-75 CNS): 806 nM
TGI (SNB-75 CNS): 4880 nM
GI50 (MALME-3M melanoma): 5430 nM
TGI (MALME-3M melanoma): > 25000 nM
GI50 (SN12C renal): 1750 nM
TGI (SN12C renal): > 18300 nM
GI50 (SF-295 CNS): 683 nM
TGI (SF-295 CNS): > 14800 nM
GI50 (SR leukemia): 904 nM
TGI (SR leukemia): > 25000 nM
GI50 (TK-10 renal): 4050 nM
TGI (TK-10 renal): 12200 nM
GI50 (HOP-62 NSCLC): 1110 nM
TGI (HOP-62 NSCLC): > 15900 nM
GI50 (SK-MEL-28 melanoma): 3470 nM
TGI (SK-MEL-28 melanoma): > 25000 nM
GI50 (RPMI-8226 leukemia): 1770 nM
TGI (RPMI-8226 leukemia): > 21000 nM
GI50 (OVCAR-5 ovarian): 3530 nM
TGI (OVCAR-5 ovarian): > 21100 nM
GI50 (HT29 colon): 912 nM
TGI (HT29 colon): 3060 nM
GI50 (CAKI-1 renal): 877 nM
TGI (CAKI-1 renal): > 9770 nM
GI50 (SF-539 CNS): 909 nM
TGI (SF-539 CNS): 3520 nM
GI50 (NCI-H522 lung): 366 nM
TGI (NCI-H522 lung): 1770 nM
GI50 (MCF7 breast): 1070 nM
TGI (MCF7 breast): 6150 nM
GI50 (SNB-19 CNS): 1670 nM
TGI (SNB-19 CNS): > 23200 nM
GI50 (NCI-H460 lung): 1060 nM
TGI (NCI-H460 lung): 4790 nM
GI50 (NCI-H226 lung): > 10300 nM
TGI (NCI-H226 lung): > 25000 nM
GI50 (HOP-92 NSCLC): 801 nM
TGI (HOP-92 NSCLC): 7110 nM
GI50 (UO-31 renal): 2550 nM
TGI (UO-31 renal): > 12300 nM
GI50 (HCC-2998 colon): 2140 nM
TGI (HCC-2998 colon): 8820 nM
GI50 (T-47D breast): 1710 nM
TGI (T-47D breast): 6560 nM
GI50 (OVCAR-8 ovarian): 1840 nM
TGI (OVCAR-8 ovarian): 10500 nM
GI50 (786-0 renal): 1720 nM
TGI (786-0 renal): 5480 nM
GI50 (U251 CNS): 1080 nM
TGI (U251 CNS): 5180 nM
GI50 (KM12 colon): 772 nM
TGI (KM12 colon): 3950 nM
GI50 (HCT-116 colon): 1030 nM
TGI (HCT-116 colon): 3960 nM
